Converted amounts (≈) assume the structure as drawn.
Tests used:
[1] = Lipophilicity, logD of compound by HPLC analysis; type: physicochemical
[2] = biological target: T1, Cytochrome P450 11B2, mitochondrial (Homo sapiens, UniProt P19099); assay: Inhibition of human CYP11B2-CLE9 expressed in chinese hamster V79 cells using 11-deoxycorticosterone as substrate preincubated for 1 hr followed by substrate addition measured for 3 hrs by HTRF assay; type: cell-based
T1 sequence (P19099 whole entry): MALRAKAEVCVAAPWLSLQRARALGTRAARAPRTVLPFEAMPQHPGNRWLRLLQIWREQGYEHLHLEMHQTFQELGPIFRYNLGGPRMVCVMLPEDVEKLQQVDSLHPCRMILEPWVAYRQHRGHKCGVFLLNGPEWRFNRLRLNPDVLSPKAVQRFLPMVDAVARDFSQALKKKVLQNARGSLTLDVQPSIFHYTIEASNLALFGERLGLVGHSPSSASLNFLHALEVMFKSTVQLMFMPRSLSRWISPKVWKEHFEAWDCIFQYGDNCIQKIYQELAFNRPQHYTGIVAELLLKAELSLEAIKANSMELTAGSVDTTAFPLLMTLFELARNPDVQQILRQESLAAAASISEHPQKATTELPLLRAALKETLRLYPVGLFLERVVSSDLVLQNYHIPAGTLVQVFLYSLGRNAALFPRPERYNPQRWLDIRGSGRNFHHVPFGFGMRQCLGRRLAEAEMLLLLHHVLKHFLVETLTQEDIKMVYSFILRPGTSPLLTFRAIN

[3] = biological target: T2, Cytochrome P450 11B1, mitochondrial (Homo sapiens, UniProt P15538); assay: Inhibition of human CYP11B1-8C7 expressed in chinese hamster V79 cells using 11-deoxycortisol as substrate preincubated for 1 hr followed by substrate addition measured for 3 hrs by HTRF assay; type: ADME, cell-based
T2 sequence (P15538 whole entry): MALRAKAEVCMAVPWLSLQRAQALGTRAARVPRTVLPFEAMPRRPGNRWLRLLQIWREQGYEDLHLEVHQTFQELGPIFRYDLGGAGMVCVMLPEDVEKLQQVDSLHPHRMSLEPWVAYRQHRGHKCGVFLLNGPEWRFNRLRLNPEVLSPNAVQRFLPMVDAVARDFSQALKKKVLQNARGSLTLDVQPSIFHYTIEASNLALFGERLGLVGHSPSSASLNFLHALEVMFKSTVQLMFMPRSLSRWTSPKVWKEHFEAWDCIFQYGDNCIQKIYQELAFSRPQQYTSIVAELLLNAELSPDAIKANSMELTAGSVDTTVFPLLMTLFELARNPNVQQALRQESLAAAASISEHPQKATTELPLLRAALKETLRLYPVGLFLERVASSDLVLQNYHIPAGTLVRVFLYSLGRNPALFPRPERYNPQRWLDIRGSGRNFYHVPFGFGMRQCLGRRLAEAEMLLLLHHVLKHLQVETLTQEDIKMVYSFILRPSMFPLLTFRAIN

[4] = test system: CYP11B1 / CYP11B2; assay: Selectivity ratio of IC50 for human CYP11B1-8C7 expressed in chinese hamster V79 cells to IC50 for human CYP11B2-CLE9 expressed in chinese hamster V79 cells; type: ADME, cell-based; conditions: read-out: Ratio IC50
[5] = Solubility of the compound in PBS buffer at pH 2; type: physicochemical
[6] = Solubility of the compound in PBS buffer at pH 7; type: physicochemical
[7] = Intrinsic clearance in Sprague-Dawley rat liver microsomes at 0.3 mM preincubated for 10 mins followed by NADPH addition measured up to 45 mins by LC/MS analysis; type: ADME; conditions: read-out: CLH
[8] = Ratio of IC50 for human CYP17 expressed in African green monkey COS7 cells to IC50 for human CYP11B2-CLE9 expressed in chinese hamster V79 cells; design: species or system COS-7
[9] = Ratio of IC50 for CYP19A1 (unknown origin) to IC50 for human CYP11B2-CLE9 expressed in chinese hamster V79 cells
[10] = Ratio of IC50 for CYP21 (unknown origin) to IC50 for human CYP11B2-CLE9 expressed in chinese hamster V79 cells
[11] = Oral bioavailability in Sprague-Dawley rat at 2 mg/kg administered via gavage by LC-MS/MS analysis; type: ADME, organism-based; conditions: in vivo
[12] = Dose normalized AUC in Sprague-Dawley rat at 2 mg/kg administered via oral gavage by LC-MS/MS analysis; type: ADME, organism-based; conditions: in vivo
[13] = Clearance in Sprague-Dawley rat plasma at 1 mg/kg, iv or 2 mg/kg administered via oral gavage by LC-MS/MS analysis; type: ADME, organism-based
[14] = Half life in Sprague-Dawley rat plasma at 1 mg/kg, iv or 2 mg/kg administered via oral gavage by LC-MS/MS analysis; type: ADME, organism-based
[15] = Oral bioavailability in Sprague-Dawley rat at 1 mg/kg administered via gavage by LC-MS/MS analysis; type: ADME, organism-based; conditions: in vivo
[16] = Dose normalized AUC in Sprague-Dawley rat at 1 mg/kg administered via oral gavage by LC-MS/MS analysis; type: ADME, organism-based; conditions: in vivo
[17] = Clearance in Sprague-Dawley rat plasma at 0.5 mg/kg, iv or 1 mg/kg administered via oral gavage by LC-MS/MS analysis; type: ADME, organism-based
[18] = Half life in Sprague-Dawley rat plasma at 0.5 mg/kg, iv or 1 mg/kg administered via oral gavage by LC-MS/MS analysis; type: ADME, organism-based

| Compound | IC50 [2] | IC50 [3] | CLint scaled at 300 µM [7] | selectivity ratio [4] | other results |
| --- | --- | --- | --- | --- | --- |
| c1ccc2c(N3CCC4(CCOC4)CC3)cncc2c1 | 13 nM | 387 nM | < 20 mL/min/kg | 24 | logD [1]: 2.6; solubility [5]: 196 µM (≈ 52.6 µg/mL); solubility [6]: 165 µM (≈ 44.3 µg/mL) |
| CC1(C)CN(c2cncc(N3CCC4(CCC(=O)N4)CC3)n2)C1 | 73 nM | 2190 nM | – | 30 | – |
| c1ccc2c(N3CCC4(CCNC4)CC3)cncc2c1 | > 10000 nM | 1310 nM | – | < 1 | – |
| CN1CC2(CCN(c3cncc([C@@](C)(O)C(F)(F)F)c3)CC2)CC1=O | 448 nM | 10000 nM | – | > 22 | – |
| c1ccc2c(N3CCC4(CCCO4)CC3)cncc2c1 | 704 nM | 787 nM | – | 1 | – |
| c1ccc2c(N3CCC4(CCCCC4)CC3)cncc2c1 | 554 nM | 1570 nM | – | 3 | – |
| CC(C)(C)OC(=O)N1CCC2(CCN(c3cncc4ccccc34)CC2)C1 | 1130 nM | > 8000 nM | – | > 7 | – |
| CC1(C)CN(c2cncc(N3CCC4(CC3)CNC(=O)C4)n2)C1 | 34 nM | 1740 nM | – | 51 | – |
| CN1CC2(CCN(c3cncc([C@](C)(O)C(F)(F)F)c3)CC2)CC1=O | 32 nM | 1540 nM | < 20 mL/min/kg | 49 | Ratio IC50 [8]: >200; Ratio IC50 [9]: >200; Ratio IC50 [10]: >200; bioavailability [11]: 91%; AUC/dose [12]: 2.15 µM·kg·h/mg; clearance [13]: 24 mL/min/kg; half-life [14]: 72 min |
| C[C@](O)(c1cncc(N2CCC3(CCOC3)CC2)c1)C(F)(F)F | 13 nM | 355 nM | < 20 mL/min/kg | 28 | bioavailability [15]: 100%; AUC/dose [16]: 0.85 µM·kg·h/mg; clearance [17]: 36 mL/min/kg; half-life [18]: 30 min |
| CN1CC2(CCN(c3cncc(N4CC(C)(C)C4)n3)CC2)CC1=O | 94 nM | 4460 nM | – | 47 | – |

More lines, main results first:

| IC50 [2] | IC50 [3] | CLint scaled at 300 µM [7] | Compound | selectivity ratio [4] | other results |
| --- | --- | --- | --- | --- | --- |
| 42 nM | 1590 nM | – | c1ccc2c(N3CCC4(CC3)COC4)cncc2c1 | 37 | – |
| 106 nM | 1670 nM | 1290 mL/min/kg | c1ccc2c(N3CCC4(CCCC4)CC3)cncc2c1 | 16 | logD [1]: 5.6; solubility [5]: 176 µM (≈ 46.9 µg/mL); solubility [6]: 3 µM (≈ 0.799 µg/mL) |
| 228 nM | 2000 nM | 76 mL/min/kg | CN1CC2(CCN(c3cncc4ccccc34)CC2)CC1=O | 9 | logD [1]: 1.6; solubility [5]: 149 µM (≈ 44 µg/mL); solubility [6]: 167 µM (≈ 49.3 µg/mL) |
| > 8000 nM | > 8000 nM | – | CN1CCC2(CCN(c3cncc4ccccc34)CC2)C1=O | – | – |
| 1030 nM | 1000 nM | – | CC(=O)N1CCC2(CCN(c3cncc4ccccc34)CC2)C1 | 1 | – |

From ChEMBL document CHEMBL3870364, “Discovery of Spirocyclic Aldosterone Synthase Inhibitors as Potential Treatments for Resistant Hypertension” (ACS Med Chem Lett, 2017)
